According to US8809341B2, “2,4-pyrimidinediamine compounds and uses as anti-proliferative agents” (Rigel Pharmaceuticals, Inc., priority 2003, dated 2014):
Values belong to the compound of their own block, whether it stands above or below them.

How the values were obtained:
A549 cells = experiment: in vitro antiproliferation assay, A549 (lung); format: cell-based
Experimental: (§1) The IC50 values of various compounds against a various different tumor cell lines were determined using standard in vitro antiproliferation assays. The tumor cell lines tested were as follows: A549 (lung); H1299 (lung), ACHN (kidney/p53 wt), CAKI (renal cell carcinoma), NCI-H460 (lung); HCT116 (colon/p53w0; HELA (cervix/p53 wt), HUH7 (liver/p53 wt), HUVEC (primary endothelial), LNCAP (prostate), HT-29 (colon); MCF-7 (breast); MCF-7 (breast/ER positive), MDA MB435S (breast); MDA MB231 (breast/ER negative), DU145 (prostate); BxPC-3 (pancreatic); SKOV-3 (ovarian); HepG2 (hepatic), NDHF primary normal human dermal fibroblast), SKMEL28 (breast/p53mut), SKMEL5 (breast/p53 wt), U20S (bone) and PC3 (prostate). […] A blank indicates the specified compound was not tested against the specified cell line.

H1299 cells = experiment: in vitro antiproliferation assay, H1299 (lung); format: cell-based
Experimental: as §1

[1] = A549 (lung) cells, in vitro antiproliferation
[2] = H1299 (lung) cells, in vitro antiproliferation
[3] = in vitro antiproliferation, H1299 (lung) cells, Table 4, compounds with no designated stereochemistry tested as racemate
[4] = IC50 class against A549 (lung) tumor cells
[5] = IC50 class against H1299 (lung) tumor cells
[6] = A549 (lung) cells, antiproliferation
[7] = H1299 (lung) cells, antiproliferation
[8] = Table 5, in vitro antiproliferation, A549 (lung) cells

IC50 (A549 cells; [1]): > 20 µM
IC50 (H1299 cells; [2]): ≤ 20 µM
Compound: COc1ccc(N(C)c2nc(Nc3cccc(-c4cnco4)c3)ncc2F)cc1OC [compound 867]

IC50 (A549 cells; [6]): ≤ 20 µM
IC50 (H1299 cells; [7]): ≤ 20 µM
Compound: O=C(COc1cccc(Nc2ncc(F)c(Nc3ccc(N4CCOCC4)cc3)n2)c1)NC1CCC1 [compound 990]

IC50 (A549 cells; [6]): ≤ 20 µM
IC50 (H1299 cells; [7]): ≤ 20 µM
Compound: CNC(=O)COc1cccc(Nc2ncc(F)c(N(C)c3ccc(OC)c(Cl)c3)n2)c1 [compound 906]

IC50 (A549 cells; [1]): > 20 µM
IC50 (H1299 cells; [2]): > 20 µM
Compound: COc1cc(OC)cc(N(C)c2nc(Nc3ccc(Cl)c(OC)c3)ncc2F)c1 [compound 854]

IC50 (A549 cells; [1]): > 20 µM
IC50 (H1299 cells; [2]): > 20 µM
Compound: COc1cc(OC)cc(N(C)c2nc(Nc3ccc(OC)c(Cl)c3)ncc2F)c1 [compound 853]

IC50 (A549 cells; [6]): ≤ 20 µM
IC50 (H1299 cells; [7]): ≤ 20 µM
Compound: CCN(CC)CCNC(=O)c1ccc(Nc2ncc(F)c(N(C)c3ccc(Cl)c(Cl)c3)n2)cc1 [compound 1031]

IC50 (A549 cells; [6]): ≤ 20 µM
IC50 (H1299 cells; [7]): ≤ 20 µM
Compound: COC(=O)c1cc(Nc2ncc(F)c(Nc3ccc(OC)c(OC)c3)n2)cc(-c2ncco2)c1 [compound 887]

IC50 (A549 cells; [4]): ≤ 20 µM
IC50 (H1299 cells; [5]): ≤ 20 µM
Compound: COc1ccc(C)c(Nc2ncc(F)c(Nc3ccc4c(c3)OCCO4)n2)c1 [compound 1047]

IC50 (H1299 cells; H1299 (lung) cells): > 20 µM
Compound: CC(C)(CC1CCC1)n1ncc2ccc(Nc3ncc(F)c(Nc4ccc(Cl)c(Cl)c4)n3)cc21 [compound 1103]

IC50 (H1299 cells; [2]): ≤ 20 µM
Compound: COc1cc(Nc2ncc(F)c(Nc3cc(OC)cc(OC)c3)n2)cc(OC)c1 [compound 840]

IC50 (A549 cells; [6]): ≤ 20 µM
Compound: Cc1cccc(Nc2ncc(F)c(Nc3cccc(C)c3)n2)c1 [compound 997]

IC50 (A549 cells; [6]): > 20 µM
Compound: CNC(=O)COc1cccc(Nc2ncc(F)c(Nc3ccc(O)cc3)n2)c1 [compound 1004]

IC50 (A549 cells; [6]): > 20 µM
Compound: Oc1c(Cl)cc(Nc2ncc(F)c(Nc3cc(Cl)c(O)c(Cl)c3)n2)cc1Cl [compound 941]

IC50 (A549 cells; [6]): > 20 µM
Compound: NC(=O)COc1ccc(Nc2ncc(F)c(Nc3ccc(OCC(N)=O)cc3)n2)cc1 [compound 971]

IC50 (A549 cells; [6]): ≤ 20 µM
Compound: CC(C)c1ccc(Nc2nc(Nc3ccc(OCCO)cc3)ncc2F)cc1 [compound 937]

The next lines start with the compound.

Compound: COc1ccc(Nc2ncc(F)c(Nc3ccc4c(c3)NC(=O)C(C)S4)n2)cc1F (racemic) [compound 288]
IC50 (A549 cells; in vitro antiproliferation, A549 (lung) cells, Table 4, compounds with no designated stereochemistry tested as racemate): ≤ 20 µM
IC50 (H1299 cells; [3]): ≤ 20 µM

Compound: CN(c1nc(Nc2cccc(N3CCOCC3)c2)ncc1F)C1CCC1 [compound 127]
IC50 (A549 cells; [4]): ≤ 20 µM
IC50 (H1299 cells; [5]): ≤ 20 µM

Compound: CNC(=O)COc1cc(Nc2ncc(F)c(Nc3cccc(O)c3)n2)cc(OCC(=O)NC)c1 [compound 798]
IC50 (A549 cells; [1]): > 20 µM
IC50 (H1299 cells; [2]): > 20 µM

Compound: COc1c(Cl)cc(Nc2ncc(F)c(Nc3ccc(Cl)c(Cl)c3)n2)cc1Cl [compound 834]
IC50 (A549 cells; [1]): ≤ 20 µM
IC50 (H1299 cells; [2]): ≤ 20 µM

Compound: CN1CCN(c2cccc(Nc3ncc(F)c(NC4CC(C)(C)N(C)C(C)(C)C4)n3)c2)CC1 [compound 179]
IC50 (A549 cells; [4]): ≤ 20 µM
IC50 (H1299 cells; [5]): ≤ 20 µM

Compound: Cc1cc(Nc2ncc(F)c(NC(C)(C)C)n2)ccc1N1CCN(C)CC1 [compound 223]
IC50 (A549 cells; [4]): ≤ 20 µM
IC50 (H1299 cells; [5]): ≤ 20 µM

Compound: Cc1cc(Nc2ncc(F)c(NC(C)C)n2)ccc1N1CCN(C)CC1 [compound 217]
IC50 (A549 cells; [4]): ≤ 20 µM
IC50 (H1299 cells; [5]): ≤ 20 µM

Compound: Cc1cc(C)cc(Nc2ncc(F)c(Nc3ccc4c(c3)NC(=O)C(C)O4)n2)c1 (centres unmarked) [compound 230]
IC50 (H1299 cells; [3]): ≤ 20 µM

Compound: COC(=O)COc1cccc(Nc2ncc(F)c(Nc3ccc4c(c3)OCCO4)n2)c1 [compound 586]
IC50 (A549 cells; [8]): > 20 µM

Compound: Fc1cnc(Nc2ccc(Cl)cc2)nc1Nc1ccc(Cl)cc1 [compound 716]
IC50 (A549 cells; [1]): > 20 µM

Compound: CCOc1ccc(Nc2nc(Nc3ccc(OC)c(OC)c3)ncc2F)cc1 [compound 709]
IC50 (A549 cells; [1]): > 20 µM

Compound: COc1ccc(Nc2nc(Nc3cccc(O)c3)ncc2F)cc1OC [compound 715]
IC50 (A549 cells; [1]): ≤ 20 µM

Compound: CCOC(=O)COc1ccc(Nc2ncc(F)c(Nc3ccc(OCC(=O)OCC)cc3)n2)cc1 [compound 737]
IC50 (A549 cells; [1]): > 20 µM

Compound: Oc1cccc(Nc2nc(Nc3ccc(OCCN4CCOCC4)cc3)ncc2F)c1 [compound 744]
IC50 (A549 cells; [1]): ≤ 20 µM

Compound: CNC(=O)COc1cccc(Nc2nc(Nc3cc(OC)cc(OC)c3)ncc2F)c1 [compound 771]
IC50 (A549 cells; [1]): ≤ 20 µM

Compound: COc1ccc(Nc2ncc(F)c(Nc3cccc(O)c3)n2)cc1OC [compound 712]
IC50 (A549 cells; [1]): > 20 µM

Compound: CC(=O)COc1cccc(Nc2ncc(F)c(Nc3ccc4c(c3)OCCO4)n2)c1 [compound 492]
IC50 (A549 cells; [8]): > 20 µM
